Laboratory results from US20080274892A1, “Novel Haloalkylsulfonanilide Derivative, Herbicide, and Method of Use Thereof” (priority 2005, published 2008).

Legend:
bulrush [1] = experiment: Test Example 2: herbicidal efficacy on rice paddy weeds post-emergence; format: in vivo, Scirpus juncoides; details: 21 days after treatment
Description: (§1) The standard of judgment for herbicidal efficacy (degree of growth inhibition) and phytotoxicity 4 . . . 90%-100% of herbicidal efficacy or phytotoxicity 3 . . . 70%-89% of herbicidal efficacy or phytotoxicity 2 . . . 40%-69% of herbicidal efficacy or phytotoxicity 1 . . . 1%-39% of herbicidal efficacy or phytotoxicity 0 . . . 0% of herbicidal efficacy or phytotoxicity
(§2) A 75 cm^2 plastic pot was filled with soil (clay loam) and planted seeds of barnyard glass and bulrush which is a rice paddy weed. After covering the top with 75 cm^3 soil mixed with seeds of false pimpernel, the pot was filled with water so that the soil submerged under 5 cm depth of water and kept in a hot house. […] The pot was kept in a hot house for 21 days after the treatment and the herbicidal efficacy was investigated and evaluated according to the standard in Test Example 1 by comparing with the untreated control. “-” in the table represents test not done.

false pimpernel [2] = experiment: Test Example 1: herbicidal efficacy on rice paddy weeds pre-emergence; format: in vivo, Lindernia pyxidaria; details: 21 days
Method: (§3) A 75 cm^2 plastic pot was filled with soil (clay loam) and planted seeds of bulrush which is a rice paddy weed. After covering the top with 75 cm^3 soil mixed with seeds of false pimpernel, the pot was filled with water so that the soil submerged under 5 cm depth of water. The predetermined effective dosage ([…]) of a formulation containing the compound of the present invention prepared according to Formulation Example 1-4 as an active ingredient was diluted in water and added to the pot water surface dropwise. The pot was kept in a hot house for 21 days and the herbicidal efficacy was investigated. The herbicidal efficacy was evaluated according to the following standard by comparing with untreated control. “-” in the table represents test not done.
as §1

bulrush [3] = experiment: as above; format: in vivo, Scirpus juncoides; details: 21 days
Method: as §3, §1

[4] = system: paddy rice plant (cultivar: Nihonbare); experiment: Test Example 3: phytotoxicity test for transplanted paddy rice plant; format: in vivo; details: 21 days after treatment; for Phytotoxicity to paddy rice: transplanted rice
Method: as §1
A 75 cm^2 plastic pot was filled with soil (clay loam), and water was added so that the soil was submerged under 5 cm depth of water. Two paddy rice plant (cultivar: Nihonbare) at two leaves stage were transplanted at the depth of 1 cm and kept in a hot house. […] The pot was kept in a hot house for 21 days after the treatment and the phytotoxicity was investigated and evaluated according to the standard in Test Example 1 by comparing with the untreated control. “-” in the table represents test not done.

false pimpernel [5] = experiment: Test Example 2: herbicidal efficacy on rice paddy weeds post-emergence; format: in vivo, Lindernia pyxidaria; details: 21 days after treatment
Description: as §1, §2

[6] = dosage 1000 g/ha, post-emergence, one leaf stage
[7] = dosage 1000 g/ha, treated 5 days after transplantation
[8] = dosage 300 g/ha, post-emergence, one leaf stage
[9] = dosage 1000 g/ha active ingredient, post-emergence treatment at one leaf stage, vs untreated control

Compound | Bulrush post (herbicidal efficacy grade) (bulrush [1]; [6]) | False pimpernel pre (herbicidal efficacy grade) (false pimpernel [2]; dosage 1000 g/ha) | Bulrush pre (herbicidal efficacy grade) (bulrush [3]; dosage 1000 g/ha) | Phytotoxicity to paddy rice [4, 7] | False pimpernel post (herbicidal efficacy grade) (false pimpernel [5]; [6]) | Bulrush post (herbicidal efficacy grade) (bulrush [1]; [8]) | False pimpernel pre (herbicidal efficacy grade) (false pimpernel [2]; dosage 300 g/ha) | Bulrush pre (herbicidal efficacy grade) (bulrush [3]; dosage 300 g/ha) | Phytotoxicity to paddy rice ([4]; dosage 300 g/ha) | False pimpernel post (herbicidal efficacy grade) (false pimpernel [5]; [8]) | also measured
COCC1CN(Cc2ccccc2NS(=O)(=O)C(F)(F)F)C(=O)O1 (stereo not shown) [Compound 1-35] | 4 (90%-100% of herbicidal efficacy or phytotoxicity) | 4 (90%-100% of herbicidal efficacy or phytotoxicity) | 4 (90%-100% of herbicidal efficacy or phytotoxicity) | 1 (1%-39% of herbicidal efficacy or phytotoxicity) | 4 (90%-100% of herbicidal efficacy or phytotoxicity) |  |  |  |  |  | 
CC(C)COC(=O)N(c1ccccc1CN1CC(C)(c2ccccc2)OC1=O)S(=O)(=O)C(F)(F)F (stereo not shown) [Compound 1-141] |  |  |  |  |  | 4 (90%-100% of herbicidal efficacy or phytotoxicity) | 4 (90%-100% of herbicidal efficacy or phytotoxicity) | 3 (70%-89% of herbicidal efficacy or phytotoxicity) | 1 (1%-39% of herbicidal efficacy or phytotoxicity) | 4 (90%-100% of herbicidal efficacy or phytotoxicity) | 
CC(C)COC(=O)N(c1ccccc1CN1CC(C)(C2CCCCC2)OC1=O)S(=O)(=O)C(F)(F)F (stereo not shown) [Compound 1-156] |  |  |  |  |  | 4 (90%-100% of herbicidal efficacy or phytotoxicity) | 4 (90%-100% of herbicidal efficacy or phytotoxicity) | 4 (90%-100% of herbicidal efficacy or phytotoxicity) | 1 (1%-39% of herbicidal efficacy or phytotoxicity) | 4 (90%-100% of herbicidal efficacy or phytotoxicity) | 
CC1(C)CN(Cc2ccccc2N(C(=O)OCc2ccccc2)S(=O)(=O)C(F)(F)F)C(=O)O1 [Compound 1-83] |  |  |  |  |  | 4 (90%-100% of herbicidal efficacy or phytotoxicity) | 1 (1%-39% of herbicidal efficacy or phytotoxicity) | 4 (90%-100% of herbicidal efficacy or phytotoxicity) | 0 (0% of herbicidal efficacy or phytotoxicity) | 1 (1%-39% of herbicidal efficacy or phytotoxicity) | 
CCC1OC(=O)N(Cc2ccccc2N(C(=O)OCC(C)C)S(=O)(=O)C(F)(F)F)C1=O (stereo not shown) [Compound 1-193] |  |  |  |  |  | 4 (90%-100% of herbicidal efficacy or phytotoxicity) | 4 (90%-100% of herbicidal efficacy or phytotoxicity) | 4 (90%-100% of herbicidal efficacy or phytotoxicity) | 0 (0% of herbicidal efficacy or phytotoxicity) | 1 (1%-39% of herbicidal efficacy or phytotoxicity) | 
CCc1cn(Cc2ccccc2N(C(=O)OCC(C)C)S(=O)(=O)C(F)(F)F)c(=O)o1 [Compound 1-210] |  |  |  |  |  | 4 (90%-100% of herbicidal efficacy or phytotoxicity) | 4 (90%-100% of herbicidal efficacy or phytotoxicity) | 3 (70%-89% of herbicidal efficacy or phytotoxicity) | 0 (0% of herbicidal efficacy or phytotoxicity) | 0 (0% of herbicidal efficacy or phytotoxicity) | 
COC(=O)N(c1ccccc1CN1CC(C)(C=C(C)C)OC1=O)S(=O)(=O)C(F)(F)F (stereo not shown) [Compound 1-166] | 4 (90%-100% of herbicidal efficacy or phytotoxicity) | 4 (90%-100% of herbicidal efficacy or phytotoxicity) | 4 (90%-100% of herbicidal efficacy or phytotoxicity) | 2 (40%-69% of herbicidal efficacy or phytotoxicity) | 4 (90%-100% of herbicidal efficacy or phytotoxicity) |  |  |  |  |  | 
CC(C)=CC1(C)CN(Cc2ccccc2NS(=O)(=O)C(F)(F)F)C(=O)O1 (stereo not shown) [Compound 1-164] | 4 (90%-100% of herbicidal efficacy or phytotoxicity) | 4 (90%-100% of herbicidal efficacy or phytotoxicity) | 4 (90%-100% of herbicidal efficacy or phytotoxicity) | 1 (1%-39% of herbicidal efficacy or phytotoxicity) | 4 (90%-100% of herbicidal efficacy or phytotoxicity) |  |  |  |  |  | 
CC(C)COC(=O)N(c1ccccc1CN1C(=O)OC(C)C1=O)S(=O)(=O)C(F)(F)F (stereo not shown) [Compound 1-191] |  |  |  |  |  | 4 (90%-100% of herbicidal efficacy or phytotoxicity) | 4 (90%-100% of herbicidal efficacy or phytotoxicity) | 4 (90%-100% of herbicidal efficacy or phytotoxicity) | 0 (0% of herbicidal efficacy or phytotoxicity) | 2 (40%-69% of herbicidal efficacy or phytotoxicity) | 
CC1(C)OC1C1(C)CN(Cc2ccccc2NS(=O)(=O)C(F)(F)F)C(=O)O1 (stereo not shown) [Compound 1-176] | 4 (90%-100% of herbicidal efficacy or phytotoxicity) | 4 (90%-100% of herbicidal efficacy or phytotoxicity) | 4 (90%-100% of herbicidal efficacy or phytotoxicity) | 1 (1%-39% of herbicidal efficacy or phytotoxicity) | 4 (90%-100% of herbicidal efficacy or phytotoxicity) |  |  |  |  |  | 
COCOc1cccc(CN2CC(C)(C)OC2=O)c1N(C(=O)OCC(C)C)S(=O)(=O)C(F)(F)F [1-213] |  |  |  |  |  |  |  |  |  |  | Bulrush post (herbicidal efficacy grade) (bulrush [1]; [9]): 4 (90%-100% of herbicidal efficacy or phytotoxicity); Bulrush pre (herbicidal efficacy grade) (bulrush [3]; dosage 1000 g/ha active ingredient, vs untreated control): 4 (90%-100% of herbicidal efficacy or phytotoxicity); Phytotoxicity to paddy rice (grade) ([4]; dosage 1000 g/ha active ingredient, treated 5 days after transplantation, vs untreated control): 1 (1%-39% of herbicidal efficacy or phytotoxicity); False pimpernel post (herbicidal efficacy grade) (false pimpernel [5]; [9]): 2 (40%-69% of herbicidal efficacy or phytotoxicity)
CC(C)=CC1(C)CN(Cc2ccccc2N(C(=O)OCC(C)C)S(=O)(=O)C(F)(F)F)C(=O)O1 (stereo not shown) [Compound 1-165] | 4 (90%-100% of herbicidal efficacy or phytotoxicity) | 4 (90%-100% of herbicidal efficacy or phytotoxicity) | 4 (90%-100% of herbicidal efficacy or phytotoxicity) | 1 (1%-39% of herbicidal efficacy or phytotoxicity) | 4 (90%-100% of herbicidal efficacy or phytotoxicity) |  |  |  |  |  | 
CCOC1N(Cc2ccccc2NS(=O)(=O)C(F)(F)F)C(=O)OC1(C)C (stereo not shown) [Compound 1-198] |  |  |  |  |  |  |  | 4 (90%-100% of herbicidal efficacy or phytotoxicity) | 2 (40%-69% of herbicidal efficacy or phytotoxicity) |  | 
CCCCCCCCCCCCCCCCOC(=O)N(c1ccccc1CN1CC(C)(C)OC1=O)S(=O)(=O)C(F)(F)F [Compound 1-84] |  |  |  |  |  | 3 (70%-89% of herbicidal efficacy or phytotoxicity) | 4 (90%-100% of herbicidal efficacy or phytotoxicity) | 4 (90%-100% of herbicidal efficacy or phytotoxicity) | 1 (1%-39% of herbicidal efficacy or phytotoxicity) | 4 (90%-100% of herbicidal efficacy or phytotoxicity) | 
CC1(COCc2ccccc2)CN(Cc2ccccc2NS(=O)(=O)C(F)(F)F)C(=O)O1 (stereo not shown) [Compound 1-173] | 4 (90%-100% of herbicidal efficacy or phytotoxicity) | 4 (90%-100% of herbicidal efficacy or phytotoxicity) | 4 (90%-100% of herbicidal efficacy or phytotoxicity) | 1 (1%-39% of herbicidal efficacy or phytotoxicity) | 4 (90%-100% of herbicidal efficacy or phytotoxicity) |  |  |  |  |  | 
CC1OC(=O)N(Cc2ccccc2NS(=O)(=O)C(F)(F)F)C1=O (stereo not shown) [Compound 1-190] |  |  |  |  |  | 4 (90%-100% of herbicidal efficacy or phytotoxicity) | 4 (90%-100% of herbicidal efficacy or phytotoxicity) | 4 (90%-100% of herbicidal efficacy or phytotoxicity) | 0 (0% of herbicidal efficacy or phytotoxicity) | 2 (40%-69% of herbicidal efficacy or phytotoxicity) | 
